From the supplement of paper PMC10307832

What was measured:
Test in all cases: relative viability (nuclei count vs DMSO), 5 days (fraction); higher = more cells survive
Ibrutinib + OSI-027 = compound: C=CC(=O)N1CCC[C@@H](n2nc(-c3ccc(Oc4ccccc4)cc3)c3c(N)ncnc32)C1 [Ibrutinib] + COc1cccc2cc(-c3nc([C@H]4CC[C@H](C(=O)O)CC4)n4ncnc(N)c34)[nH]c12 [OSI-027] (partner 0.5 µM)
Summary of the method: (§1)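 Lung cancer cell lines in 1536-well plates got either a single drug or a fixed anchor-drug dose together with five library-drug doses (not always all listed) in √10 steps, by pin tool, on the day after seeding. Nuclei were counted after 5 days, and relative viability is the treated-to-vehicle ratio of nuclei counts. Values are medians of duplicate plates.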

PAC-1 + Palbociclib = compound: C=CCc1cccc(/C=N/NC(=O)CN2CCN(Cc3ccccc3)CC2)c1O [PAC-1] + CC(=O)c1c(C)c2cnc(Nc3ccc(N4CCNCC4)cn3)nc2n(C2CCCC2)c1=O [Palbociclib] (partner 0.5 µM)
Summary of the method: as §1

BMX-IN-1 + Lapatinib = compound: C=CC(=O)Nc1cc(-n2c(=O)ccc3cnc4ccc(-c5ccc(NS(C)(=O)=O)cc5)cc4c32)ccc1C [BMX-IN-1] + CS(=O)(=O)CCNCc1ccc(-c2ccc3ncnc(Nc4ccc(OCc5cccc(F)c5)c(Cl)c4)c3c2)o1 [Lapatinib] (partner 2 µM)
Summary of the method: as §1

PAC-1 + Linsitinib = compound: C=CCc1cccc(/C=N/NC(=O)CN2CCN(Cc3ccccc3)CC2)c1O [PAC-1] + C[C@]1(O)C[C@@H](c2nc(-c3ccc4ccc(-c5ccccc5)nc4c3)c3c(N)nccn32)C1 [Linsitinib] (partner 1 µM)
Summary of the method: as §1

## SK-MES-1
Ibrutinib + OSI-027; first compound 0.005 µM
  relative viability: 0.584
Ibrutinib + OSI-027; first compound 0.01581 µM
  relative viability: 0.568
Ibrutinib + OSI-027; first compound 0.05 µM
  relative viability: 0.584
Ibrutinib + OSI-027; first compound 0.1581 µM
  relative viability: 0.687
Ibrutinib + OSI-027; first compound 0.5 µM
  relative viability: 0.357
PAC-1 + Palbociclib; first compound 0.02 µM
  relative viability: 0.336
PAC-1 + Palbociclib; first compound 0.06325 µM
  relative viability: 0.311
PAC-1 + Palbociclib; first compound 0.2 µM
  relative viability: 0.315
PAC-1 + Palbociclib; first compound 2 µM
  relative viability: 0.308
BMX-IN-1 + Lapatinib; first compound 0.02 µM
  relative viability: 0.473
BMX-IN-1 + Lapatinib; first compound 0.2 µM
  relative viability: 0.466
BMX-IN-1 + Lapatinib; first compound 0.6325 µM
  relative viability: 0.489
BMX-IN-1 + Lapatinib; first compound 2 µM
  relative viability: 0.439
PAC-1 + Linsitinib; first compound 0.02 µM
  relative viability: 1.04
PAC-1 + Linsitinib; first compound 0.06325 µM
  relative viability: 1.03
PAC-1 + Linsitinib; first compound 0.2 µM
  relative viability: 1.04
PAC-1 + Linsitinib; first compound 2 µM
  relative viability: 1.03
